Results from the supplement of paper PMC10307832.

What was measured:
Assay in all cases: relative viability (nuclei count vs DMSO), 5 days (fraction); higher = more cells survive
NCI-H358 = tested on: NCI-H358
Outline: (§1)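 Lung cancer cell lines, seeded in 1536-well plates, were treated the following day by pin tool with a single drug or with five library-drug doses (not always all listed) in √10 steps on top of a fixed anchor-drug dose. Cells were fixed and nuclei stained in one step after 5 days, and nuclei were counted. Relative viability is the nuclei count for treated wells divided by that for vehicle wells, reported as medians of duplicate plates.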

NCI-H2085 = tested on: NCI-H2085
Outline: as §1

NCI-H650 = tested on: NCI-H650
Outline: as §1

COR-L23 = tested on: COR-L23
Outline: as §1

NCI-H1993 = tested on: NCI-H1993
Outline: as §1

NCI-H1915 = tested on: NCI-H1915
Outline: as §1

NCI-H2347 = tested on: NCI-H2347
Outline: as §1

EPLC-272H = tested on: EPLC-272H
Outline: as §1

SW 1573 = tested on: SW 1573
Outline: as §1

PC-14 = tested on: PC-14
Outline: as §1

NCI-H1651 = tested on: NCI-H1651
Outline: as §1

NCI-H2126 = tested on: NCI-H2126
Outline: as §1

LU99A = tested on: LU99A
Outline: as §1

NCI-H838 = tested on: NCI-H838
Outline: as §1

HCC-44 = tested on: HCC-44
Outline: as §1

HARA = tested on: HARA
Outline: as §1

HOP-62 = tested on: HOP-62
Outline: as §1

NCI-H2023 = tested on: NCI-H2023
Outline: as §1

LC-2-ad = tested on: LC-2-ad
Outline: as §1

UMC-11 = tested on: UMC-11
Outline: as §1

NCI-H1355 = tested on: NCI-H1355
Outline: as §1

HCC-15 = tested on: HCC-15
Outline: as §1

CCN(CC)CCCCNc1ncc2cc(-c3cc(OC)cc(OC)c3)c(NC(=O)NC(C)(C)C)nc2n1 + Nc1nc2[nH]cc(CCc3ccc(C(=O)N[C@@H](CCC(=O)O)C(=O)O)cc3)c2c(=O)[nH]1 [Pemetrexed] (partner 0.2 µM)
relative viability (NCI-H358; first compound 0.01 µM): 0.163
relative viability (NCI-H358; first compound 0.03162 µM): 0.169
relative viability (NCI-H358; first compound 0.1 µM): 0.16
relative viability (NCI-H358; first compound 0.3162 µM): 0.216
relative viability (NCI-H358; first compound 1 µM): 0.167
relative viability (NCI-H2085; first compound 0.01 µM): 0.882
relative viability (NCI-H2085; first compound 0.03162 µM): 0.898
relative viability (NCI-H2085; first compound 0.1 µM): 0.894
relative viability (NCI-H2085; first compound 0.3162 µM): 1.02
relative viability (NCI-H2085; first compound 1 µM): 0.86
relative viability (NCI-H650; first compound 0.01 µM): 0.877
relative viability (NCI-H650; first compound 0.03162 µM): 0.842
relative viability (NCI-H650; first compound 0.1 µM): 1.04
relative viability (NCI-H650; first compound 0.3162 µM): 1.03
relative viability (NCI-H650; first compound 1 µM): 0.948
relative viability (COR-L23; first compound 0.01 µM): 0.208
relative viability (COR-L23; first compound 0.03162 µM): 0.188
relative viability (COR-L23; first compound 0.1 µM): 0.192
relative viability (COR-L23; first compound 0.3162 µM): 0.196
relative viability (COR-L23; first compound 1 µM): 0.192
relative viability (NCI-H1993; first compound 0.01 µM): 0.57
relative viability (NCI-H1993; first compound 0.03162 µM): 0.583
relative viability (NCI-H1993; first compound 0.1 µM): 0.652
relative viability (NCI-H1993; first compound 0.3162 µM): 0.689
relative viability (NCI-H1993; first compound 1 µM): 0.707
relative viability (NCI-H1915; first compound 0.01 µM): 0.511
relative viability (NCI-H1915; first compound 0.03162 µM): 0.521
relative viability (NCI-H1915; first compound 0.1 µM): 0.558
relative viability (NCI-H1915; first compound 0.3162 µM): 0.518
relative viability (NCI-H1915; first compound 1 µM): 0.445
relative viability (NCI-H2347; first compound 0.01 µM): 0.419
relative viability (NCI-H2347; first compound 0.03162 µM): 0.555
relative viability (NCI-H2347; first compound 0.1 µM): 0.423
relative viability (NCI-H2347; first compound 0.3162 µM): 0.412
relative viability (NCI-H2347; first compound 1 µM): 0.382
relative viability (EPLC-272H; first compound 0.01 µM): 0.386
relative viability (EPLC-272H; first compound 0.03162 µM): 0.271
relative viability (EPLC-272H; first compound 0.1 µM): 0.334
relative viability (EPLC-272H; first compound 0.3162 µM): 0.317
relative viability (EPLC-272H; first compound 1 µM): 0.26
relative viability (SW 1573; first compound 0.01 µM): 0.858
relative viability (SW 1573; first compound 0.03162 µM): 0.843
relative viability (SW 1573; first compound 0.1 µM): 1.08
relative viability (SW 1573; first compound 0.3162 µM): 0.944
relative viability (SW 1573; first compound 1 µM): 0.832
relative viability (PC-14; first compound 0.01 µM): 0.123
relative viability (PC-14; first compound 0.03162 µM): 0.117
relative viability (PC-14; first compound 0.1 µM): 0.184
relative viability (PC-14; first compound 0.3162 µM): 0.139
relative viability (PC-14; first compound 1 µM): 0.141
relative viability (NCI-H1651; first compound 0.01 µM): 0.597
relative viability (NCI-H1651; first compound 0.03162 µM): 0.635
relative viability (NCI-H1651; first compound 0.1 µM): 0.643
relative viability (NCI-H1651; first compound 0.3162 µM): 0.787
relative viability (NCI-H1651; first compound 1 µM): 0.495
relative viability (NCI-H2126; first compound 0.01 µM): 0.646
relative viability (NCI-H2126; first compound 0.03162 µM): 0.764
relative viability (NCI-H2126; first compound 0.1 µM): 0.644
relative viability (NCI-H2126; first compound 0.3162 µM): 0.661
relative viability (NCI-H2126; first compound 1 µM): 0.749
relative viability (LU99A; first compound 0.01 µM): 0.206
relative viability (LU99A; first compound 0.03162 µM): 0.177
relative viability (LU99A; first compound 0.1 µM): 0.214
relative viability (LU99A; first compound 0.3162 µM): 0.177
relative viability (LU99A; first compound 1 µM): 0.195
relative viability (NCI-H838; first compound 0.01 µM): 0.242
relative viability (NCI-H838; first compound 0.03162 µM): 0.245
relative viability (NCI-H838; first compound 0.1 µM): 0.225
relative viability (NCI-H838; first compound 0.3162 µM): 0.234
relative viability (NCI-H838; first compound 1 µM): 0.224
relative viability (HCC-44; first compound 0.01 µM): 0.682
relative viability (HCC-44; first compound 0.03162 µM): 0.705
relative viability (HCC-44; first compound 0.1 µM): 0.634
relative viability (HCC-44; first compound 0.3162 µM): 0.625
relative viability (HCC-44; first compound 1 µM): 0.721
relative viability (HARA; first compound 0.01 µM): 0.202
relative viability (HARA; first compound 0.03162 µM): 0.234
relative viability (HARA; first compound 0.1 µM): 0.279
relative viability (HARA; first compound 0.3162 µM): 0.22
relative viability (HARA; first compound 1 µM): 0.281
relative viability (HOP-62; first compound 0.01 µM): 0.33
relative viability (HOP-62; first compound 0.03162 µM): 0.275
relative viability (HOP-62; first compound 0.1 µM): 0.362
relative viability (HOP-62; first compound 0.3162 µM): 0.314
relative viability (HOP-62; first compound 1 µM): 0.351
relative viability (NCI-H2023; first compound 0.01 µM): 0.264
relative viability (NCI-H2023; first compound 0.03162 µM): 0.225
relative viability (NCI-H2023; first compound 0.1 µM): 0.323
relative viability (NCI-H2023; first compound 0.3162 µM): 0.264
relative viability (NCI-H2023; first compound 1 µM): 0.219
relative viability (LC-2-ad; first compound 0.01 µM): 0.293
relative viability (LC-2-ad; first compound 0.03162 µM): 0.267
relative viability (LC-2-ad; first compound 0.1 µM): 0.272
relative viability (LC-2-ad; first compound 0.3162 µM): 0.264
relative viability (LC-2-ad; first compound 1 µM): 0.271
relative viability (UMC-11; first compound 0.01 µM): 0.862
relative viability (UMC-11; first compound 0.03162 µM): 0.767
relative viability (UMC-11; first compound 0.1 µM): 0.969
relative viability (UMC-11; first compound 0.3162 µM): 0.986
relative viability (UMC-11; first compound 1 µM): 0.696
relative viability (NCI-H1355; first compound 0.01 µM): 1.06
relative viability (NCI-H1355; first compound 0.03162 µM): 1.09
relative viability (NCI-H1355; first compound 0.1 µM): 1.17
relative viability (NCI-H1355; first compound 0.3162 µM): 1.11
relative viability (NCI-H1355; first compound 1 µM): 1.02
relative viability (HCC-15; first compound 0.01 µM): 0.21
relative viability (HCC-15; first compound 0.03162 µM): 0.237
relative viability (HCC-15; first compound 0.1 µM): 0.206
relative viability (HCC-15; first compound 0.3162 µM): 0.209
relative viability (HCC-15; first compound 1 µM): 0.207
